Measurements taken from patent publication US12421252B2, “Spiro (isobenzofuranazetidine) compounds for the treatment of autoimmune disease” (Hoffmann-La Roche Inc., priority 2020, dated 2025).

Assays:
[1] = molecular target: T1, hERG channel (Homo sapiens, UniProt Q12809); assay: hERG channel inhibition assay (patch-clamp, CHO hERG cells); format: cell-based; details: for safety window (hERG IC20/TLR7/8/9 IC50, in words): compared to the compounds of this invention; for hERG IC20/TLR7 IC50 / hERG IC20/TLR9 IC50: safety ratio
T1 construct: expressed in transfected cells
Procedure: hERG Channel Inhibition Assay:
The hERG K+ channels were cloned in humans and stably expressed in a CHO (Chinese hamster ovary) cell line. CHOhERG cells were used for patch-clamp (voltage-clamp, whole-cell) experiments. Cells were stimulated by a voltage pattern to activate hERG channels and conduct IKhERG Currents (rapid delayed outward rectifier potassium current of the hERG channel). After the cells were stabilized for a few minutes, the amplitude and kinetics of IKhERG were recorded at a stimulation frequency of 0.1 Hz, (6 bpm). Thereafter, the test compound was added to the preparation at increasing concentrations. For each concentration, an attempt was made to reach a steady-state effect, usually, this was achieved within 3-10 min at which time the next highest concentration was applied. The amplitude and kinetics of IKhERG are recorded in each concentration of the drug which were compared to the control values (taken as 100%). (references: Redfern W S, Carlsson L, Davis A S, Lynch W G, MacKenzie I, Palethorpe S, Siegl P K, Strang I, Sullivan A T, Wallis R, Camm A J, Hammond T G. 2003; Relationships between preclinical cardiac electrophysiology, clinical QT interval prolongation and torsade de pointes for a broad range of drugs: evidence for a provisional safety margin in drug development. Cardiovasc. Res. 58:32-45, Sanguinetti M C, Tristani-Firouzi M. 2006; hERG potassium channels and cardiac arrhythmia. Nature 440:463-469, Webster R, Leishman D, Walker D. 2002; Towards a drug concentration effect relationship for QT prolongation and torsades de pointes. Curr. Opin. Drug Discov. Devel. 5:116-26).

[2] = molecular target: T2, hTLR9 (Homo sapiens, UniProt Q9NR96); set-up: host or cells: HEK; details: data disclosed in US20150105370; read-out: HEK/hTLR9 IC50; cited from earlier work
T2 sequence (Q9NR96 26-1032): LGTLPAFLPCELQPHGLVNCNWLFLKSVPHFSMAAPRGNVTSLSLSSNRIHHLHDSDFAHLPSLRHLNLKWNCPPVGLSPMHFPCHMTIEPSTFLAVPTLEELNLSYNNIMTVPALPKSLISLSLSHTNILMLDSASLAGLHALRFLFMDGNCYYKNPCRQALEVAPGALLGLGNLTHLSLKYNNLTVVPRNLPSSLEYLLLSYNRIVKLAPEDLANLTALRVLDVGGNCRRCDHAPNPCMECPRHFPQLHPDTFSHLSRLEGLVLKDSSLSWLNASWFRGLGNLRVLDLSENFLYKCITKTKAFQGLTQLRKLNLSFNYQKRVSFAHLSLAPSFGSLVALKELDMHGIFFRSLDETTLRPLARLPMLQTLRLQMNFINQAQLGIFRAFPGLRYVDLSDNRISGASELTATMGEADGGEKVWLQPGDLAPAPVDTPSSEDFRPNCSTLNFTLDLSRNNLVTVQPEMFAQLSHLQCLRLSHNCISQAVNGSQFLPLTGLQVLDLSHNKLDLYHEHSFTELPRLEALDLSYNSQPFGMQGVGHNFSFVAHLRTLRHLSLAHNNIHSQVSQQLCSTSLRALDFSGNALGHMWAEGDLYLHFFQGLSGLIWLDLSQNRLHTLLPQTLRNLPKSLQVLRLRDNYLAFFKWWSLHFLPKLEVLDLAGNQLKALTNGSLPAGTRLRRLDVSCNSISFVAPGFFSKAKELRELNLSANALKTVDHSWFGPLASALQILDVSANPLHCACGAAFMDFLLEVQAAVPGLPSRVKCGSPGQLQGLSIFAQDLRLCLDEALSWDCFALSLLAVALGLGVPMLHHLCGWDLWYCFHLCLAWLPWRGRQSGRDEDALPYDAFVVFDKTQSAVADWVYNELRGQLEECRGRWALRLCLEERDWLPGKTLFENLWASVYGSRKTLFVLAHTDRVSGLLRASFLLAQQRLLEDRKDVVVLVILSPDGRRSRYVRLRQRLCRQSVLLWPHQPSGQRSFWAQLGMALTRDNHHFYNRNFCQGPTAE

[3] = molecular target: T3, CYP2D6 (Homo sapiens, UniProt P10635); assay: CYP inhibition assay in human liver microsome, CYP2D6; format: in vitro ADME; details: percentage inhibition, substrate Dextromethorphan 5 μM, <0: not or weak inhibitor
T3 construct: tissue BD-Gentest 452117; host or cells: human liver microsomes
Procedure: (§1) This is a high throughput screening assay used for assessment of reversible inhibition of CYP2C9, CYP2D6, and CYP3A4 activity of test compounds in human liver microsome (HLM) in early discovery stage.
(§2) Procedure 10 mM DMSO stock solutions of test compounds were diluted in DMSO to generate 2 mM intermediate stock solution. 250 nL of intermediate stock solution were transferred in duplicate into 3 separate 384 well microtitre plates (assay-ready plates). A mixture of HLM and each substrate was made up. 45 μL of HLM substrate mix was then transferred to each well of an assay ready plate and mixed. The negative (solvent) and positive controls (standard inhibitor for each CYP) were included in each assay ready plate. The assay ready plate was warmed to 37° C. in an incubator over 10 minutes. 5 μL pre-warmed NADPH regenerating system was added to each incubation well to start the reaction. Final incubation volume was 50 μL. The assay plate then was placed back in the 37° C. incubator. After incubation (10 minutes for CYP2D6) for 5 minutes, incubates were quenched by addition of 50 μL 100% acetonitrile containing internal standards (400 ng/mL 13C6-4′-OH-Diclofenac, 20 ng/mL D3-Dextrorphan and 20 ng/mL D4-1′OH-Midazolam). The supernatants were collected for RapidFire/MS/MS analysis.
(§3) RapidFire online solid phase extraction/sample injection system (Agilent) coupled with API4000 triple quadrupole mass spectrometer (AB Sciex) were used for sample analysis. The mobile phase composed of acetonitrile and water supplemented with 0.1% formic acid. A C4 solid phase extraction cartridge is used for sample separation. MS detection is achieved in positive ion MRM mode.
(§4) Data analysis Peak areas for substrate, metabolite and internal standard are determined using the RapidFire integrator software (version 3.6.12009.12296). Peak area ratios (PAR) of metabolite and internal standard (stable-labelled metabolite) are then calculated. The measurement window for each experiment is then defined: PAR (0% activity)=average PAR for all incubations containing concentrated inhibitor; Par (100% activity)=average PAR for all incubations containing no inhibitor (DMSO controls); % Activity (test inhibitor)=[PAR (test inhibitor)-PAR (0% activity)]/[PAR (100% activity)-PAR (0% activity)]; % Inhibition (test inhibitor)=100-% Activity (test inhibitor).

[4] = molecular target: T4, CYP3A4 (Homo sapiens, UniProt P08684); assay: CYP inhibition assay in human liver microsome, CYP3A4; format: in vitro ADME; details: percentage inhibition, substrate Midazolam 5 μM, <0: not or weak inhibitor
T4 construct: tissue BD-Gentest 452117; host or cells: human liver microsomes
Procedure: as §1, §2, §3, §4

[5] = molecular target: T5, CYP2C9 (Homo sapiens, UniProt P11712); assay: CYP inhibition assay in human liver microsome, CYP2C9; format: in vitro ADME; details: percentage inhibition, substrate Diclofenac 5 μM, <0: not or weak inhibitor
T5 construct: tissue BD-Gentest 452117; host or cells: human liver microsomes
Procedure: as §1, §2, §3, §4

T1 sequence (Q12809 whole entry): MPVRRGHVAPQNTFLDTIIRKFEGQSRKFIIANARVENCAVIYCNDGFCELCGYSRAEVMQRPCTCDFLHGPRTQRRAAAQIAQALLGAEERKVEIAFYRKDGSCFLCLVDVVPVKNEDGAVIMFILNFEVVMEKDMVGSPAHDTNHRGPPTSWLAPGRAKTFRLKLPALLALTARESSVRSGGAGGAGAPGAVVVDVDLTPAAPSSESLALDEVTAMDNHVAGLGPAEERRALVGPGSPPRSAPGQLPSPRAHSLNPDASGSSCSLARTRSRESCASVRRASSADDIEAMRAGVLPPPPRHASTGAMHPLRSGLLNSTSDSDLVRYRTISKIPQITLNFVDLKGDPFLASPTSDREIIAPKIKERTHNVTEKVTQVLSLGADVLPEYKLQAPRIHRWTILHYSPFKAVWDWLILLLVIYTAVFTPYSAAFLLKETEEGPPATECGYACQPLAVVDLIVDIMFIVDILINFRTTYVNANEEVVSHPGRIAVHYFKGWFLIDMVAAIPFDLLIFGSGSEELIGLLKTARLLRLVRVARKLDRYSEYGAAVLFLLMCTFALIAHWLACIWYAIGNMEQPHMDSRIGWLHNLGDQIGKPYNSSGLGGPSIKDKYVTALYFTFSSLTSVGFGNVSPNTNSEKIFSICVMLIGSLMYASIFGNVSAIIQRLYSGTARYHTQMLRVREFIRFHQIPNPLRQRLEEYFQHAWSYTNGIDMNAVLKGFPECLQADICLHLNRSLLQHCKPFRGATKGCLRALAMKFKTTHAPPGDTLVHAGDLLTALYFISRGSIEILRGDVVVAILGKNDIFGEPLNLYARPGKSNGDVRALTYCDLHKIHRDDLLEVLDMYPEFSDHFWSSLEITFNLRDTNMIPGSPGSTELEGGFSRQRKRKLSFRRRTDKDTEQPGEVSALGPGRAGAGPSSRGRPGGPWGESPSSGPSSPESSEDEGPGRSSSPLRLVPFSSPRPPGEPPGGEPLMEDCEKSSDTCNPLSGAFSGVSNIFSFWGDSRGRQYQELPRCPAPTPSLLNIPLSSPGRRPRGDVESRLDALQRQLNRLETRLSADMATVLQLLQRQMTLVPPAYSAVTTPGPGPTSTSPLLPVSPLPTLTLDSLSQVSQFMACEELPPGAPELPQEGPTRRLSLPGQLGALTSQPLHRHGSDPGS
T3 sequence (P10635 whole entry): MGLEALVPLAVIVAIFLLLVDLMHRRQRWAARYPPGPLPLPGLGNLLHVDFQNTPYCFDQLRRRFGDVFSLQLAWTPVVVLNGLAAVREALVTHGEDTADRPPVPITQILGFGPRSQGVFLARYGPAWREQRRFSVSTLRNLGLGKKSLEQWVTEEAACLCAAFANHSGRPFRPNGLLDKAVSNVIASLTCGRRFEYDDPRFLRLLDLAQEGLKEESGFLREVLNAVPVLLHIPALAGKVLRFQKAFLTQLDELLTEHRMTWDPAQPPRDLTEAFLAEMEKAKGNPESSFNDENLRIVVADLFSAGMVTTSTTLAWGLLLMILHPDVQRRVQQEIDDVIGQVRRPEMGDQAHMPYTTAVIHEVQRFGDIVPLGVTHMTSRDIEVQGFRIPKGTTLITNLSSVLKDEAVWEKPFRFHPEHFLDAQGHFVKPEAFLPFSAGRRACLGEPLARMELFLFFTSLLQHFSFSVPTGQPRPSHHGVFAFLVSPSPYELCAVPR
T5 sequence (P11712 whole entry): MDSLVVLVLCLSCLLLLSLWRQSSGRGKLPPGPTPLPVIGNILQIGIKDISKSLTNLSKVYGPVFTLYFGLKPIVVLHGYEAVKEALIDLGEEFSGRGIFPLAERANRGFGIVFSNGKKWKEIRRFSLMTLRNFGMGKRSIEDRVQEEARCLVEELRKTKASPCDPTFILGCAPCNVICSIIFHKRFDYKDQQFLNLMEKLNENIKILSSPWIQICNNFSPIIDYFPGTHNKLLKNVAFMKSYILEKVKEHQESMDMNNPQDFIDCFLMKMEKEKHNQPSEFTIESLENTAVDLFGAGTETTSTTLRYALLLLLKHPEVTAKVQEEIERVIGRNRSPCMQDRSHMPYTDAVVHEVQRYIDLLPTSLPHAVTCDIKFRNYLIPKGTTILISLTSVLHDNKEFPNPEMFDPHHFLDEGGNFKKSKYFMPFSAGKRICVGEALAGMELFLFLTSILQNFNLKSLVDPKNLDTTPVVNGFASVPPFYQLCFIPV
T4 sequence (P08684 whole entry): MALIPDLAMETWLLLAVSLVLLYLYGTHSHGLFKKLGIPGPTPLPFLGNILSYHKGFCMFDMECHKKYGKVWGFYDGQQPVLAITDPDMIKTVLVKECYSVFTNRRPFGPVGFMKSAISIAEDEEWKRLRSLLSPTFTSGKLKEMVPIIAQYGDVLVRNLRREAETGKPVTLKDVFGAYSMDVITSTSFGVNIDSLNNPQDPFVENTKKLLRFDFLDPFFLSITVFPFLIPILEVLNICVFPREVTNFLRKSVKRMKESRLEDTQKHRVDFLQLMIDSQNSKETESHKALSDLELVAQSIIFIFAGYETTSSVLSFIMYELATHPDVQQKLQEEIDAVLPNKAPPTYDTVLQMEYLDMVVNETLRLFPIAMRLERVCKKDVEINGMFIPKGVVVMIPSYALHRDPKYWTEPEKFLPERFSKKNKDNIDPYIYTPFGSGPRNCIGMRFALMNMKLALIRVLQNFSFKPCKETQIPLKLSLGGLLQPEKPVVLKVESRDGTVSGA

Row | Structure (SMILES) | safety window (hERG IC20/TLR7/8/9 IC50, in words) [1] | hERG IC20/TLR7 IC50 [1] | hERG IC20/TLR9 IC50 [1] | IC50 [2] [nM] | CYP (%) 2D6 [3] [%] | CYP (%) 3A4 [4] [%] | CYP (%) 2C9 [5] [%]
1 | C[C@@H]1CN(c2ccc(C#N)c3ncccc23)C[C@H](CN2CCN(c3ccccc3)CC2)O1 [ER-887258, reference compound] | much narrower safety window | 8.1 | 0.3 | > 2000 | – | – | –
2 | C[C@@H]1CN(c2ccc(C#N)c3ncccc23)C[C@H](CN2CCN(c3ccccn3)CC2)O1 [ER-888285, reference compound] | much narrower safety window | 8.4 | 0.5 | > 2000 | – | – | –
3 | C[C@@H]1CN(c2ccc(C#N)c3ncccc23)C[C@H](CN2CC(NS(=O)(=O)c3ccc(F)cc3)C2)O1 [ER-894155] | – | – | – | > 10000 | – | – | –
4 | C[C@@H]1CN(c2ccc(C#N)c3ncccc23)C[C@H](CN2CCN(c3ccncc3)CC2)O1 [ER-888286, reference compound] | much narrower safety window | 0.3 | 0.2 | > 2000 | 52.5 | 5.5 | 29.5
